Laboratory results published in patent US12533300B2, “Self-assembling peptides in the prevention and treatment of cavitated carious lesions” (Credentis AG, priority 2019, dated 2026).

Experiments:
[1] = Release profile of model substance Congo Red from dental materials into PBS (photometer, 500 nm); format: physicochemical
Protocol: As well-known to the person skilled in the art, a release profile of an agent, i.e. fluoride or self-assembling peptide, depends on the matrix of the material (Mousavinasab et al., 2009, Dent Res J (Isfahan) 6(2):75-81). In the following experiment, the release profile of a model substance mimicking self-assembling peptide, Congo Red, was assessed after the incorporation into the dental material. The material was prepared and applied as per instructions for use (IFU), usually describing the use of 0.5-0.75 mL of the respective products. To mimic the saliva, Phosphate Buffered Saline (PBS) was used. PBS matches the osmolarity and ion concentrations of the human body—it is isotonic. To mimic the constant saliva flux, the applied amount was placed in a solution equal to 1 h saliva flux, which is about 20 mL. The diffusion of the material was assessed at 500 nm with a photometer. Release Profile a) Preparation of Varnish (Duraphat) and Paro Amin Fluor Gelée • Per suppliers IFU, it is recommend to add 0.5-1 mL of the varnish to a carious site. The concentration of Congo Red was chosen to lead a distinct signal in the UV Vis. • Place 12 mg Congo Red in 2 mL Eppendorf tube • Add 2 mL of the varnish directly into the tube with a syringe • Mix Congo Red and varnish vigorously until content uniformity is reached • Pick up product with syringe • Place 0.5-0.75 ml of the product on a microscopic slide as a thin film—as recommended per IFU • Let it air dry—as per IFU b) Preparation of Lonofil (Glass Ionomer Restorative Material) • Place 12 mg Congo Red directly in a dental cup • Add 2 spoons of lonofil Plus as per IFU • Add 2 drops of water and mix as per IFU • Place amount of product on microscopic slide c) Incubation Prepare the PBS Solution with 1% EtOH for preservation • Place slide in 50 ml centrifugation tube • Add 20 mL of PBS • Place on rotating wheel d) Measurement and Calculation • Directly decant 1 mL of incubated fluid into UV-Cell • Measure at 500 nm, control/blank=PBS with 1% EthOH subtract control w/o Congo Red from measured value

[2] = Release profile of P11-4 from varnish and glass ionomer cement (280 nm); format: physicochemical
Protocol: The material was prepared and applied as per instructions for use (IFU), usually describing the use of 0.5-0.75 mL of the respective products. To mimic the saliva, Phosphate Buffered Saline (PBS) was used. PBS matches the osmolarity and ion concentrations of the human body—it is isotonic. To mimic the constant saliva flux, the applied amount was placed in a solution equal to 1 h saliva flux, which is about 20 mL. The diffusion of the material was assessed at 500 nm with a photometer.
Release Profile a) Preparation of Varnish (Duraphat) and Paro Amin Fluor Gelée • Per suppliers IFU, it is recommend to add 0.5-1 mL of the varnish to a carious site. The concentration of Congo Red was chosen to lead a distinct signal in the UV Vis. • Place 12 mg Congo Red in 2 mL Eppendorf tube • Add 2 mL of the varnish directly into the tube with a syringe • Mix Congo Red and varnish vigorously until content uniformity is reached • Pick up product with syringe • Place 0.5-0.75 ml of the product on a microscopic slide as a thin film—as recommended per IFU • Let it air dry—as per IFU b) Preparation of Lonofil (Glass Ionomer Restorative Material) • Place 12 mg Congo Red directly in a dental cup • Add 2 spoons of lonofil Plus as per IFU • Add 2 drops of water and mix as per IFU • Place amount of product on microscopic slide c) Incubation
Prepare the PBS Solution with 1% EtOH for preservation • Place slide in 50 ml centrifugation tube • Add 20 mL of PBS • Place on rotating wheel d) Measurement and Calculation • Directly decant 1 mL of incubated fluid into UV-Cell • Measure at 500 nm, control/blank=PBS with 1% EthOH subtract control w/o Congo Red from measured value
Example 7 was in essence carried out as Example 6, but with the self-assembling peptide P11-4, if not otherwise described. 12 mg of P11-4 (credentis AG), in monomeric form, were added to either the varnish Duraphat (Sample ID: AP) or the glass ionomer cement Aqua lonofil Plus (Sample ID BP) in the amounts and under the conditions described above. The incubation was carried out in a static manner at room temperature. Measurement was at 280 nm, and the control value for buffer without peptide was subtracted from the measured value.

[3] = Pulp capping with P11-4 solution under dental material; format: in vivo; details: exposed pulp covered with P11-4 solution (e.g., 100 μl, 10 mg/mL, pH 8) before Resin Composite
Protocol: A cavity exposing the pulp is excavated due to dental caries. The pulp is covered with P11-4 solution (e.g., 100 μl, 10 mg/mL, pH 8) before placing of a dental material, e.g., Resin Composite according to the manufacturer's instructions (e.g., application in layers and light curing, as appropriate).

[4] = Alkilzy et al., 2018; cited from earlier work

Row | Molecule | Time course of Congo Red release from glass ionomer cement ([1]; Aqua Ionofil Plus, FIG. 4A) | Speed of Congo Red release from varnish relative to glass ionomer cement ([1]; Duraphat versus Aqua Ionofil Plus, FIG. 4A) | Release of Congo Red from paro Amin Fluor Gelée ([1]; Sample 2, used for comparison, 20 mL PBS with 1% EtOH, FIG. 4B) | Release of Congo Red from varnish Duraphat ([1]; sample A1, 12 mg Congo Red in 2 mL varnish, 20 mL PBS with 1% EtOH, FIG. 4A) | Release of Congo Red from glass ionomer cement Aqua Ionofil Plus ([1]; sample B1, 12 mg Congo Red, 20 mL PBS with 1% EtOH, FIG. 4A) | Speed of P11-4 release from varnish relative to glass ionomer cement ([2]; Duraphat versus Aqua Ionofil Plus, FIG. 4C) | Release of P11-4 from varnish Duraphat ([2]; sample AP, 12 mg monomeric P11-4, static incubation at room temperature, FIG. 4C) | Release of P11-4 from glass ionomer cement Aqua Ionofil Plus ([2]; sample BP, 12 mg monomeric P11-4, static incubation at room temperature, FIG. 4C) | Amount of released peptide over time ([2]; varnish and glass ionomer cement, measured for several days) | Pulp symptoms (pulpitis) after pulp capping [3] | Effect on early carious lesions in combination with fluoride, compared to fluoride alone [4]
1 | Nc1c(/N=N/c2ccc(-c3ccc(/N=N/c4cc(S(=O)(=O)O)c5ccccc5c4N)cc3)cc2)cc(S(=O)(=O)O)c2ccccc12 [Congo red, Congo Red] | constant and increases with time | quicker | released | released | released |  |  |  |  |  | 
2 | P11-4: self-assembling peptide, sequence QQRFEWEFEQQ (P11-4) |  |  |  |  |  | quicker | slowly and substantially constantly released | slowly and substantially constantly released | increases with time | remains symptoms free | additional effect
